Data as given in PMC8044163, “Vitamin D and lumisterol derivatives can act on liver X receptors (LXRs)” (Scientific Reports, 2021).

System: murine dermal fibroblasts
Test: RNA-Seq of newborn murine dermal fibroblasts
Type: cell-based, mouse
Conditions: 10^−7 M, 24 h
Experimental: All animal studies followed guidelines outlined by the NIH Guide for the Care and Use of Laboratory Animals and protocols were approved by the Institutional Animal Care and Use Committee at the NIEHS or the UAB. […] Skin samples from newborn C57BL/6 mice were collected at the NIEHS. Dermal fibroblasts were isolated from the skin of newborn mice, 1–2 day old. Briefly, we followed the protocols described previously. The skin was washed in PBS, cut into smaller pieces and incubated in 2.4 U/ml of dispase II (Roche) overnight at 4 °C. The dermis was separated from the epidermis and incubated in 0.1% collagenase (Roche) at 4 °C overnight. […] Single cell suspension was prepared by pipetting and draining through a cell strainer. After centrifugation, cell pellets were suspended in DMEM medium containing 10% charcoal-stripped fetal bovine serum (cFBS), mouse fibroblasts growth factor (FGF) and 1% antibiotic, and inoculated into tissue culture dishes (Midwest Scientific, TPP). Cells, in early passages, from different mice were pooled together to provide representative samples for experiments. Fibroblasts were cultured in Petri dishes (10 cm in diameter) in DMEM and 10% cFBS and triplicate semi-confluent cultures were treated as described.
Triplicate cultures of murine fibroblasts were used for RNA isolation (RNAeasy Micro kit, Qiagen), the RNA samples were combined for each condition and at least 200 ng of RNA for each sample was used to create libraries for RNA sequencing by BGI Americas Corporation Service (Cambridge, MA)[67]. Quality of RNA and its concentration were determined using Agilent 2100.
The raw sequence FASTQ files were aligned to Gencode’s GRCm38 p4 Release M11 genome using STAR version 2.5.4b (parameters used: –outReadsUnmapped Fastx; –outSAMtype BAM SortedByCoordinate; –outSAMattributes All; –outFilterIntronMotifs RemoveNoncanonicalUnannotated)[69]. The abundance of transcripts was calculated from the alignments using Cufflinks version 2.2.1 (parameters used: –G; –L; –library-type fr-firststrand). Samples were merged using default parameters with Cuffmerge[70],[71]. The differential expression was calculated using Cuffdiff’s default parameters. The raw data have been deposited at the NCBI GEO (GSE145818).

Structure (SMILES): CC(C)CCC[C@](C)(O)[C@H]1CC[C@H]2[C@@H]3CC=C4C[C@@H](O)CC[C@]4(C)[C@H]3CC[C@@]21C [20(OH)C, 20-hydroxycholesterol, reference compound]
- Adh7 expression level: 0.7754
- Adh7 log2(fold_change) vs control: 1.595
- Aqp11 expression level: 0.8073
- Aqp11 log2(fold_change) vs control: 1.853
- Arid3b expression level: 0.9108
- Arid3b log2(fold_change) vs control: -1.9
- Bicd1 expression level: 0.39
- Bicd1 log2(fold_change) vs control: -2.453
- Btc expression level: 1.112
- Btc log2(fold_change) vs control: 2.1992
- Car9 expression level: 1.738
- Car9 log2(fold_change) vs control: -2.435
- Cbs expression level: 0.5333
- Cbs log2(fold_change) vs control: -1.867
- Ccl4 expression level: 0.1695
- Ccl4 log2(fold_change) vs control: -2.322
- Cd68 expression level: 2.992
- Cd68 log2(fold_change) vs control: 1.391
- Cd200 expression level: 0.446
- Cd200 log2(fold_change) vs control: -1.664
- Cherp expression level: 31.8463
- Cherp log2(fold_change) vs control: -2.536
- Clec2g expression level: 0
- Clec2g log2(fold_change) vs control: -inf
- Cnnm4 expression level: 3.864
- Cnnm4 log2(fold_change) vs control: -3.699
- Cox15 expression level: 14.0674
- Cox15 log2(fold_change) vs control: 1.269
- Cpa2 expression level: 0.3139
- Cpa2 log2(fold_change) vs control: -2.322
- Ctrl expression level: 0.4557
- Ctrl log2(fold_change) vs control: -1.16
- Dcun1d1 expression level: 3.938
- Dcun1d1 log2(fold_change) vs control: -1.746
- Defb42 expression level: 0.3618
- Defb42 log2(fold_change) vs control: -1.335
- Dtx1 expression level: 0.6172
- Dtx1 log2(fold_change) vs control: -1.429
- Ehf expression level: 0.3171
- Ehf log2(fold_change) vs control: -1.391
- Ercc2 expression level: 15.1049
- Ercc2 log2(fold_change) vs control: -3.489
- Erh expression level: 1.52
- Erh log2(fold_change) vs control: -2.047
- Fmnl1 expression level: 0.0589
- Fmnl1 log2(fold_change) vs control: -3.9854
- Gys2 expression level: 0
- Gys2 log2(fold_change) vs control: -inf
- Hist1h2ab expression level: 1.148
- Hist1h2ab log2(fold_change) vs control: 2
- Hist1h2bg expression level: 0.5658
- Hist1h2bg log2(fold_change) vs control: -2
- Hist1h2bh expression level: 0
- Hist1h2bh log2(fold_change) vs control: -inf
- Hist1h4c expression level: 0.4039
- Hist1h4c log2(fold_change) vs control: -1
- Isl1 expression level: 0.3429
- Isl1 log2(fold_change) vs control: -1.227
- Krt19 expression level: 12.2793
- Krt19 log2(fold_change) vs control: 1.279
- Larp1b expression level: 3.613
- Larp1b log2(fold_change) vs control: -2.853
- Lhx6 expression level: 2.203
- Lhx6 log2(fold_change) vs control: -2.404
- Lsm5 expression level: 0.8846
- Lsm5 log2(fold_change) vs control: -1.59
- M1ap expression level: 2.484
- M1ap log2(fold_change) vs control: 2.0059
- Med9os expression level: 0.3191
- Med9os log2(fold_change) vs control: -2.7
- Nckipsd expression level: 8.765
- Nckipsd log2(fold_change) vs control: 1.073
- Nr3c2 expression level: 0.1285
- Nr3c2 log2(fold_change) vs control: -3.098
- Nr6a1 expression level: 0.3735
- Nr6a1 log2(fold_change) vs control: -2.304
- Ntrk3 expression level: 0.3696
- Ntrk3 log2(fold_change) vs control: -2.33
- Parvg expression level: 0.09605
- Parvg log2(fold_change) vs control: -3.946
- Pde4dip expression level: 20.5427
- Pde4dip log2(fold_change) vs control: -7.578
- Psd4 expression level: 0.1792
- Psd4 log2(fold_change) vs control: -3.129
- Ptpa expression level: 149.828
- Ptpa log2(fold_change) vs control: 1.1778
- Ptpn6 expression level: 1.723
- Ptpn6 log2(fold_change) vs control: -2.798
- Rnu3a expression level: 0
- Rnu3a log2(fold_change) vs control: -inf
- Rpph1 expression level: 0.6576
- Rpph1 log2(fold_change) vs control: -1
- Rsad1 expression level: 1.413
- Rsad1 log2(fold_change) vs control: -1.15
- Saa1 expression level: 0.1908
- Saa1 log2(fold_change) vs control: -2.322
- Samd12 expression level: 0.5476
- Samd12 log2(fold_change) vs control: -2.717
- Scn8a expression level: 0.2978
- Scn8a log2(fold_change) vs control: -1.43
- Sgca expression level: 0.3806
- Sgca log2(fold_change) vs control: -1.697
- Slc15a4 expression level: 13.0176
- Slc15a4 log2(fold_change) vs control: -2.132
- Slc16a5 expression level: 0.4564
- Slc16a5 log2(fold_change) vs control: -1.015
- Snhg9 expression level: 7.471
- Snhg9 log2(fold_change) vs control: -1.322
- St7 expression level: 21.7063
- St7 log2(fold_change) vs control: -1.667
- Stmn1 expression level: 6.2905
- Stmn1 log2(fold_change) vs control: 2.02
- Susd1 expression level: 2.158
- Susd1 log2(fold_change) vs control: 1.637
- Syt8 expression level: 0.2562
- Syt8 log2(fold_change) vs control: -3.638
- Syt12 expression level: 1.318
- Syt12 log2(fold_change) vs control: -1.636
- Tldc2 expression level: 0
- Tldc2 log2(fold_change) vs control: -inf
- Tnnc2 expression level: 0.1558
- Tnnc2 log2(fold_change) vs control: -2.361
- Unc5c expression level: 0.4963
- Unc5c log2(fold_change) vs control: -1.133
- Wdr17 expression level: 0.677
- Wdr17 log2(fold_change) vs control: -1.73
- Zbtb18 expression level: 5.289
- Zbtb18 log2(fold_change) vs control: -3.07
- Zfp618 expression level: 2.236
- Zfp618 log2(fold_change) vs control: -1.093
- number of genes downregulated, FC ≥ 2: 498
- number of genes upregulated, FC ≥ 2: 564
- number of genes solely downregulated (FC ≥ 2): 109 (10.3%)
- number of genes solely upregulated (FC ≥ 2): 291 (19.4%)
